Reference: ChEMBL document CHEMBL3507680, “University of Dundee, Gates Library screen for HepG2 cell viability”

Assay: Human HepG2 cell viability assay in 384 well format
Format: toxicity, cell-based
Set-up: dose 125 nL, time 70.5 hour; concentration not given beside the values
Conditions: HepG2 cells, read-out: Inhibition

Row | SMILES | cytotoxicity at 70.5 h
1 | COc1ccc(Cl)cc1-c1nc(N)nc(N(C)C)n1 | -6.28%
2 | Cc1cc(NCCN)nc2ccccc12 | -11.3%
3 | COC1CCCN(Cc2nc(Cc3ccccc3F)no2)C1 (stereo not given) | -5.83%
4 | Cc1ccnc(NC(=O)CCNC(=O)c2ccccc2Cl)c1 | -1.99%
5 | Cc1ccc(OCc2occc2C(=O)O)cc1 | -5.9%
6 | CCOC(=O)CNC(=O)c1cccnc1Oc1ccc(Cl)cc1 | -9.7%
7 | COC(=O)c1cnc2c(c(C)nn2C)c1OC | -3.27%
8 | NC(=O)C(Cc1ccccc1)NS(=O)(=O)Cc1ccccc1Cl (stereo not given) | 7.03%
9 | CCn1cnnc1CN(C)C(=O)C1CCC(=O)N(CC2CCCCC2)C1 (stereo not given) | -6.42%
10 | NS(=O)(=O)c1cccnc1NCc1ccco1 | -4.56%
11 | CC(=O)NCCC(=O)NCc1cccnc1-n1cnc2ccccc21 | -8.92%
12 | CCC(=O)N1CCCc2c(cnn2C)C1 | 23.9%
13 | Cn1ncc2c1CCCN(C(=O)C1CCC1)C2 | -2.82%
14 | O=C(c1sccc1-n1cnnn1)N1CCC(Cc2ccccc2)CC1 | -4.62%
15 | CCOc1ccccc1-c1noc(CN(C)Cc2cnn(C)c2)n1 | 2%
16 | COc1ccc(CCCN(C)C(=O)c2cc(C(C)=O)c[nH]2)cc1OC | -8.38%
17 | CNC(=O)NC(=O)C(NCc1cccs1)c1ccccc1 (stereo not given) | 34.4%
18 | COc1ccc(CN(C)C(=O)CSc2nnc(N)s2)c(OC)c1OC | -5.3%
19 | CN(CC(=O)NCCc1ccccn1)C(=O)c1cccs1 | -19.9%
20 | CC1CCN(S(=O)(=O)N2CCc3sccc3C2)CC1 | 45%
21 | COc1ccc(C2C3=C(CCCC3=O)Nc3nc(SC)nc(N)c32)cc1 (stereo not given) | 6.58%
22 | CC(Sc1nc(N)cc(N)n1)c1nc(C(C)(C)C)no1 (stereo not given) | -2.01%
23 | CS(=O)(=O)N1CCN(C(=O)CN2CCCc3c(F)cc(F)cc32)CC1 | -3.95%

Row | SMILES | cytotoxicity at 70.5 h
24 | COc1ccnc(N2CCN(CC(=O)N3CCOCC3)CC2)n1 | 2.32%
25 | CC(CNC(=O)Nc1ccc(C#N)cc1)N1CCc2ccccc21 (stereo not given) | 4.28%
26 | CCOC(=O)CCC(=O)NC(C)c1ccc(NC(=O)CC)cc1 (stereo not given) | -3.08%
27 | O=C(c1cc(Cl)c(Br)[nH]1)N1CCN(Cc2ccco2)CC1 | -6.08%
28 | COc1c(Br)cc(Cl)cc1NCc1c(C)noc1C | 11.5%
29 | O=C(NCc1nnc2n1CCC2)c1cn(-c2cccc(Br)c2)nn1 | -6.53%
30 | N#Cc1c(F)cccc1N1CCC(NS(=O)(=O)c2cccs2)CC1 | 13.5%
31 | CC(C)c1nc(CN2CCN(C(=O)CN3CCOCC3)CC2)no1 | 28.7%
32 | CN(C)C(CNC(=O)c1nc(N2CCOCC2)ncc1Cl)c1ccco1 (stereo not given) | -19.3%
33 | CCCS(=O)(=O)NC(C)C(=O)NCc1ccc(N2CCCC2)nc1 (stereo not given) | -7.44%
34 | O=S(=O)(NCc1cn2ccccc2n1)N1CCOCC1 | -12.1%
35 | CN1CCC(NC(=O)NCc2csc(Br)c2)CC1 | -10.7%
36 | CN(C)c1nc(N)nc(CN2CCCC2c2ccsc2)n1 (stereo not given) | -7.29%
37 | COc1ccccc1OCCNc1snc(Cl)c1C#N | -15.5%
38 | O=C(CCNC(=O)c1ccc(Cl)cc1)NCc1nc(C2CC2)no1 | 19.3%
39 | CCN(CC)S(=O)(=O)c1ccc(CCC(=O)NCc2cc(C)on2)cc1 | -7.82%
40 | Cc1ccsc1C(=O)NC1CCS(=O)(=O)c2ccccc21 (stereo not given) | -5.17%
41 | COc1cc(CNCC(O)c2ccc(F)c(F)c2)cc2c1OCO2 (stereo not given) | 29.9%
42 | Cc1ccc(C(=O)Nc2ccccc2F)n1C | -11.5%
43 | Cc1nc(CCNC(=O)NCc2ccc(N(C)C)nc2)cs1 | -8.72%
44 | COc1ccc(Cl)cc1NCC(=O)NCCNc1cnccn1 | -10.9%
45 | Cc1cccc(OC2CCN(C(=O)NCc3cc[nH]n3)CC2)c1C | 0.923%
46 | Cc1nn(CC(O)CN2CCc3ccccc3C2)c(=O)c(C#N)c1C (stereo not given) | -19.9%

Row | SMILES | cytotoxicity at 70.5 h
47 | CCOC(=O)CCCNC(=O)CN1CCN(c2ncccn2)CC1 | -13.6%
48 | N#Cc1cccnc1N1CCN(C(=O)CCC(=O)c2cccs2)CC1 | 14.6%
49 | CCc1c(C(=O)NCC2CCS(=O)(=O)C2)cnn1-c1ccc(C)cc1 (stereo not given) | -20%
50 | CCN(CC(=O)NC(C)C)S(=O)(=O)N1CCCCCC1 | -5.99%
51 | O=C1NCCCCC1Sc1ccc(F)cc1F (stereo not given) | 7.77%
52 | Cc1cc(=O)[nH]c(-n2nc(-c3ccccc3)cc2N)n1 | 12.5%
53 | COc1ccc2nnc(CCC(=O)Nc3nc4c(s3)CCC4)n2n1 | -25.1%
54 | CCN1CCN(C(C)CNC(=O)Nc2nnc(C)s2)CC1 (stereo not given) | -10.5%
55 | Cc1cc(NC(=O)NCC2CCN(C(C)C)C2)no1 (stereo not given) | -5.36%
56 | COc1ccc2oc(C(C)NC(=O)NC3CCN(C)CC3)c(C)c2c1 (stereo not given) | -13.4%
57 | CCS(=O)(=O)NCCNc1cc(-n2cccc2)ncn1 | -0.787%
58 | O=S(=O)(NCCNc1cc(-n2cccc2)ncn1)c1cccs1 | -2.52%
59 | CS(=O)(=O)N1CCN(c2cc(-n3cccc3)ncn2)CC1 | -4.46%
60 | CC(=O)OC1CN(c2nc3c(Cl)cccc3s2)C1 | -9.84%
61 | CC(=O)OC1CN(c2nc3c(C)cccc3s2)C1 | -15.1%
62 | CNC(=O)c1ccc2c(OC)n(C)nc2c1 | -1.72%
63 | CN(C)CC1CSCCCN1C(=O)c1cccc(C(F)(F)F)c1 (stereo not given) | 3.74%
64 | CN(C)CC1CSCCCN1S(=O)(=O)Cc1ccc(C(F)(F)F)cc1 (stereo not given) | -0.0412%
65 | Cc1cccc(C(=O)N2CCCSCC2CN2CCCC2)c1 (stereo not given) | -0.415%
66 | CSc1ccccc1NC(=O)C1CSc2ncc(C)c(=O)n2C1 (stereo not given) | -10.7%
67 | COc1ccc(C)cc1NC(=O)C1CSc2ncc(C)c(=O)n2C1 (stereo not given) | 8.57%
68 | Cc1cnc2n(c1=O)CC(C(=O)Nc1ccon1)CS2 (stereo not given) | -13.7%
69 | CCc1c(C)nc2n(c1=O)CC(C(=O)Nc1ccccc1C)CS2 (stereo not given) | 4.11%

Row | SMILES | cytotoxicity at 70.5 h
70 | CCc1c(C)nc2n(c1=O)CC(C(=O)Nc1ncccc1C)CS2 (stereo not given) | -8.04%
71 | COc1cc(C(=O)NCCc2ccccc2OC)on1 | -1.09%
72 | COc1cc(C(=O)NCCc2ccc(Cl)cc2)on1 | 0.265%
73 | O=S(=O)(NCC(O)c1ccc2c(c1)CCO2)c1ccccc1F (stereo not given) | -13.3%
74 | NC(=O)NCC(=O)N1C[C@H]2CC[C@@H]1CN(C1Cc3ccccc3C1)C2 | -10.1%
75 | Cc1ncc(S(C)(=O)=O)c(C2CCCNC2)n1 (stereo not given) | 2.69%
76 | CCn1c(CN2CCCC2)nnc1C1CCN(Cc2ccc(C)o2)CC1 | -5.38%
77 | N#Cc1c(C2CC2)cc(-c2ccc(O)cc2)nc1N | 1.29%
78 | Cn1c(Cn2cccn2)nnc1C1CCN(Cc2cccnc2N)CC1 | -0.251%
79 | Cc1nc(N2CCCCC2)ncc1C(=O)N1CC(C)(C)[C@@](C)(O)C1 | -6.11%
80 | Cc1nccc(N2CCC(=O)N(Cc3ccc(F)cc3)C(C(C)C)C2)n1 (stereo not given) | -2.7%
81 | O=C(Nc1ccc(F)cc1)N1C[C@H]2CC[C@@H]1CN(Cc1cccnc1)C2 | -3.12%
82 | OCCOCCN1CCCC1c1nc2cc(F)ccc2[nH]1 (stereo not given) | 12%
83 | Cc1nn2c(N3CCC(O)C3)cc(-c3ccccc3)nc2c1C (stereo not given) | -5.83%
84 | O=C(C1CC(=O)N(C2CCCC2)C1)N1CCN(CCn2cccc2)CC1 (stereo not given) | -5.71%
85 | CCOC(=O)C1CCCN(c2ccc(-c3nc(C)no3)cn2)C1 (stereo not given) | -4.38%
86 | Cc1ncc(C(=O)N2C[C@H]3CC[C@@H]2CN(S(=O)(=O)N(C)C)C3)c(C)n1 | -11.5%
87 | Cn1c(Cn2cccn2)nnc1C1CCCN(c2ccncc2F)C1 (stereo not given) | 3.69%
88 | CN1CC(c2ccccc2)CC12CCN(C(=O)c1ccc(F)cc1)CC2 (stereo not given) | -4.24%
89 | CCc1cc(NCCNc2cccnc2)n2nccc2n1 | -7.64%
90 | Cc1cccc(C(=O)N2CCCCC2c2ccc(CN(C)C)cc2)n1 (stereo not given) | 18.3%
91 | O=C1CC[C@H]2CN(Cc3ccc(Cl)s3)CC[C@H]2N1CCc1c[nH]cn1 | -7.7%
92 | CSc1ncc(C(=O)N2C[C@H]3CC[C@@H]2CN(Cc2ccccc2)C3)cn1 | -1.13%

Row | SMILES | cytotoxicity at 70.5 h
93 | CC(=O)Nc1ccc(CNC2CC(=O)N(Cc3cccc(F)c3)C2)cc1 (stereo not given) | -8.05%
94 | CCCn1c(C)c(CC(=O)NC)c2c1CC(C)(C)CC2=O | -6.96%
95 | O=C(CCn1cccn1)N1C[C@@H]2CC[C@H](C1)N(Cc1ccccn1)C2=O | -2.38%
96 | Cn1ccc2ccc(C(=O)N3CCN(C(=O)N4CCOCC4)CC3)cc21 | 23.3%
97 | Cc1nc(CCCNC(=O)C2CC(=O)N(C(C)(C)C)C2)sc1C (stereo not given) | -7.69%
98 | COc1cccc(N2CCN(Cc3ncc[nH]3)CC2=O)c1 | -10.6%
99 | CC(C)N1CCCC2(CCN(C(=O)CCCn3ccnc3)C2)C1=O (stereo not given) | -12.1%
100 | COC(=O)c1cccc(C(=O)N2CCCCC2CCn2ccnc2C)c1 (stereo not given) | -1.17%
101 | CCC(=O)N1CCC2(CC1)c1nc[nH]c1CCN2S(C)(=O)=O | -4.48%
102 | CCCOCCN1CCC2(CC1)CC(c1ccccc1)C(=O)N2C (stereo not given) | 25.1%
103 | CCC(CO)N(Cc1ccccn1)C(=O)c1ccc2c(c1)CCO2 (stereo not given) | 15%
104 | CN1CCN(Cc2nnc(C3CCN(CC4CC4)CC3)n2C)CC1 | -2.48%
105 | COc1ccc(C(C(=O)O)N2CCCN(C3CCCCC3)CC2)cn1 (stereo not given) | -10.2%
106 | Cc1nc(C)c(CC(=O)N2C[C@@H]3CC[C@H](C2)N(CC2CCC2)C3)c(=O)[nH]1 | -6.37%
107 | COc1ccccc1C1CNC(=O)c2nc(-c3ncc[nH]3)[nH]c2C1 (stereo not given) | -10.6%
108 | Cc1ncc(-c2nc3cc(S(=O)(=O)N4CCCC4)ccc3n2C)cn1 | -0.434%
109 | CCn1nc(C)c(CNC(=O)c2cn(CC3CCCO3)nn2)c1C (stereo not given) | -1.67%
110 | COCCN1CCCC(O)(CN2CCN(c3ncccc3C)CC2)C1=O (stereo not given) | -7.68%
111 | NCC1CN(c2nc(-c3ccccc3)nc3c2CCNCC3)CCO1 (stereo not given) | 3.02%
112 | CC(C)N(Cc1ccc(C(=O)O)o1)C(C)C | -7.28%
113 | O=C1NCCCCC1NCc1csc(-c2ccc(F)cc2)n1 (stereo not given) | 6.14%
114 | CC1CCN(CCCNS(=O)(=O)c2cccc(F)c2)CC1 | -13.7%
115 | c1ccc2c(c1)SCCC2NCc1ccc(N2CCOCC2)cc1 (stereo not given) | -3.16%
